Values quoted from earlier work, collected in patent US20150342872A1 (CRITITECH, INC., priority 2014, published 2015).

What was measured:
[1] = tested on: microtubule bundling and cytotoxic effects
[2] = 3-hour infusion, 135 versus 175 mg/m2

increase of AUC (0-∞) for a 30% increase in dose [2]: 89%
SMILES: CC(=O)O[C@H]1C(=O)[C@@]2(C)[C@H]([C@H](OC(=O)c3ccccc3)[C@]3(O)C[C@H](OC(=O)[C@H](O)[C@@H](NC(=O)c4ccccc4)c4ccccc4)C(C)=C1C3(C)C)[C@]1(OC(C)=O)CO[C@@H]1C[C@@H]2O [paclitaxel]
minimal concentration required to induce microtubule bundling and cytotoxic effects [1]: > 0.1 µmol/L
